What was measured:
[1] = test system: recombinant human eEF-2 kinase; test: eEF-2 kinase activity assay: phosphorylation of rabbit reticulocyte eEF-2 with [γ-32P]ATP, SDS/PAGE and autoradiography; type: biochemical; details: kinase expressed in coupled transcription/translation system, assayed without further purification; 20 μM antagonist is printed in the FIG. 3 legend for panel C
Description: FIG. 3. Activity of recombinant eEF-2 kinase in vitro. A large scale (0.5 ml) reaction using a mixture of Cefk-1 and Cefk-2 plasmids was run as in FIG. 2, with the omission of labeled methionine. In the control experiment, the reaction was run with a plasmid containing a luciferase gene. (A) The reaction mixtures were separated by chromatography on a Mono Q column as described. (B) eEF-2 kinase activity in fractions was measured as the ability to phosphorylate purified rabbit eEF-2 in the presence of [γ-^32 P]ATP. Purified rabbit reticulocyte eEF-2 kinase was used in the (+) control experiments. (C) Ca^2+/calmodulin-dependency of recombinant C. elegans eEF-2 kinase. Mono Q fraction 25 was assayed in a standard eEF-2 kinase assay in the presence and absence of Ca^2+ and calmodulin and 20 μM trifluoperazine (TFP) or N-(6 aminohexyl)-5-chloro-1-napthalene-sulfonamide (W7). (D) Ca^2+/calmodulin-dependency of recombinant human eEF-2 kinase. […]
To assay for eEF-2 kinase activity, 5 μl from each fraction was added to a reaction mixture (40 μl) containing 50 mM Hepes-KOH (ph. 7.4) 10 mM magnesium acetate, 0.1 mM CaCl2, 5 mM dithiothreitol, 50 μM ATP, 2 μCi [γ-^32P]ATP, 0.6 μg calmodulin, and 0.5 μg rabbit reticulocyte eEF-2. […] Phosphoproteins were analyzed by autoradiography. […]

[2] = target: T1, recombinant eEF-2 kinase (Homo sapiens, UniProt O00418); test: eEF-2 kinase activity assay using a 16-amino acid peptide derived from myosin heavy chain as the phosphorylation target; type: biochemical; details: [γ-33P]ATP, 30° C., phosphocellulose paper, scintillation counting
T1 construct: one of GST (pGEX-2T), 6xHis (pRSET A) or thioredoxin (pThioHisB); made in house; host or cells: Escherichia coli BL21(DE3)
Description: FIG. 8. Assay for eEF-2 kinase activity. Recombinant eEF-2 kinase (2 μg) was incubated with increasing concentrations of a peptide phosphorylation target (RKKGESEKTKTKEFL) in a buffer consisting of 12.5 mM Hepes-KOH (pH 7.4), 2.5 mM magnesium acetate, 1.25 mM DTT, 25 μM CaCl2, 0.5 μg calmodulin, 100 μM ATP, and 0.5 μCi [γ-^33P]ATP in a total volume of 50 μl. Samples were incubated at 30° C. and aliquots were withdrawn at various time points, and the reaction was terminated by incubation in an ice water bath. The aliquots were then spotted onto phosphocellulose paper (2 cm×2 cm) and washed (4×4 min) with 75 mM phosphoric acid. The papers were then rinsed with 100% ethanol, dried, and then counted in a scintillation counter.
Human eEF-2 kinase cDNA was cloned into three different expression vectors: pGEX-2T (Pharmacia Biotech, Piscataway, N.J.); pRSET A (Invitrogen, Sorrento Valley, Calif.); and, pThioHisB (Invitrogen). After transformation into Escherichia coli strain BL21(DE3), transformants were cultured in LB broth containing 50 μg/ml ampicillin. When the cultured reached an A600 value of 0.7, isopropyl-β-thiogalactopyranoside (IPTG) was added to the bacterial cultures to a final concentration of […] to induce expression. […] The refolded protein was analyzed by SDS-PAGE and assayed for the ability to phosphorylate eEF-2. […]

Row | inhibition of recombinant human eEF-2 kinase activity by calmodulin antagonists [1] | ability to serve as substrate (phosphoacceptor) for eEF-2 kinase [2] | Compound
1 | completely inhibited |  | NCCCCCCNS(=O)(=O)c1cccc2c(Cl)cccc12 [N-(6-aminohexyl)-5-chloro-1-napthalene-sulfonamide]
2 | completely inhibited |  | CN1CCN(CCCN2c3ccccc3Sc3ccc(C(F)(F)F)cc32)CC1 [trifluoperazine]
3 |  | good substrate | RKKFGESEKTKTKEFL [16-mer peptide based on the phosphorylation site of Dictyostelium discoideum MHC, substrate for eEF-2 kinase]

From patent publication US6346406B1, “Elongation factor-2 kinase (EF-2 kinase), and methods of use therefor” (University of Medicine & Dentistry of New Jersey, priority 1997, dated 2002)
